Experimental data published in patent publication US20250215012A1, “IKZF2 DEGRADERS AND USES THEREOF” (REGENTS OF THE UNIVERSITY OF MICHIGAN, priority 2022, published 2025).

Target: IKZF2 (Homo sapiens (Human), UniProt Q96SW2+Q9UKS7)
Assay: IKZF2 HiBiT Assay (Jurkat-IKZF2-HiBiT cell line)
Assay type: cell-based
Details: Jurkat-IKZF2-HiBiT cells, 24 hours; for DC50: read-out: HiBit assay degradation analysis DC50; for Dmax: read-out: HiBit assay degradation analysis Dmax
Method: Degradation of IKZF2 protein is determined by IKZF2 HiBiT assay using the Jurkat-IKZF2-HiBiT (Promega) cell line. Briefly, cells are seeded in culture medium. Compounds are serially diluted in culture medium, and certain volume of the diluted compounds is added to the appropriate well of the plate. After the addition of compounds, the cells are incubated. At the end of treatment, Nano-Glo HiBiT Lytic Detection Reagent (Promega) is added to each well, and then the plates are incubated at room temperature for a certain time period. The luminescent signal is measured using a CALRIOstar plate reader (BMG Labtech). The readings are normalized to the DMSO-treated cells and the IC50 is calculated by nonlinear regression (four parameters sigmoid fitted with variable slope, least squares fit, and no constraint) analysis using the GraphPad Prism 8 software.
Degradation of IKZF2 protein was determined by IKZF2 HiBiT assay using the Jurkat-IKZF2-HiBiT (Promega) cell line. […] Compounds were serially diluted in culture medium, and 20 μl of the diluted compounds were added to the appropriate wells of the plate. After the addition of compounds, the cells were incubated at 37° C. in an atmosphere of 5% CO2 for 24 hours. At the end of treatment, 40 ul of Nano-Glo HiBiT Lytic Detection Reagent (Promega) was added to each well, and then the plates were incubated at room temperature for 10-20 minutes. The luminescent signal was measured using a CALRIOstar plate reader (BMG Labtech). The readings were normalized to the DMSO-treated cells and the IC50 was calculated by nonlinear regression (four parameters sigmoid fitted with variable slope, least squares fit, and no constraint) analysis using the GraphPad Prism 8 software.

Sequence of IKZF2 (Q9UKS7 whole entry): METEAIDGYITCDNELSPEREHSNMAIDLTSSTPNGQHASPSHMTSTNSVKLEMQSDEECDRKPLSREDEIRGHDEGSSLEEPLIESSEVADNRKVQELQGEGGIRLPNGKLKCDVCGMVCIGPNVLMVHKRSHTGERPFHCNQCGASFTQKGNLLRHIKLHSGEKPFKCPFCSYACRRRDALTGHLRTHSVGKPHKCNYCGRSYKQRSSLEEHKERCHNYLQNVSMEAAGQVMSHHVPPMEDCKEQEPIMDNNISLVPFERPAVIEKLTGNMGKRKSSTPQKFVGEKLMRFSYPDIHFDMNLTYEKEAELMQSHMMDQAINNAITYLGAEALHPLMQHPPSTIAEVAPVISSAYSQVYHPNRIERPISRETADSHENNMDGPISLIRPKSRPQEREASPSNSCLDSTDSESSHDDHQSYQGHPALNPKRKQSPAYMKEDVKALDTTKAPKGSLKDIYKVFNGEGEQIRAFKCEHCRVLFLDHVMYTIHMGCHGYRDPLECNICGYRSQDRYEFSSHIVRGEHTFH
Sequence of IKZF2 (Q96SW2 whole entry): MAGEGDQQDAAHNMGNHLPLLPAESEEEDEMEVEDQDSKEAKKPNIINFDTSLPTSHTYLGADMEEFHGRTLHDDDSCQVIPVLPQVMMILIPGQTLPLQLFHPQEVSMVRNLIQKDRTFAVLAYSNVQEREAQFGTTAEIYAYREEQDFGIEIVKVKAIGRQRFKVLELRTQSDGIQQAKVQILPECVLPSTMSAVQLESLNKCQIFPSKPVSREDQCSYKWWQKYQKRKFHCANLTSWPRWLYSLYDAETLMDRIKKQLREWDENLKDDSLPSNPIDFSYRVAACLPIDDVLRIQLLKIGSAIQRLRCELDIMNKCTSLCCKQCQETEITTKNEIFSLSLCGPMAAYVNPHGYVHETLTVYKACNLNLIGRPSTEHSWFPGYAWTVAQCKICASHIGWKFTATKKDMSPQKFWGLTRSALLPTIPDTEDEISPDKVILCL
Sequence of IKZF2 (Q16531 whole entry partner): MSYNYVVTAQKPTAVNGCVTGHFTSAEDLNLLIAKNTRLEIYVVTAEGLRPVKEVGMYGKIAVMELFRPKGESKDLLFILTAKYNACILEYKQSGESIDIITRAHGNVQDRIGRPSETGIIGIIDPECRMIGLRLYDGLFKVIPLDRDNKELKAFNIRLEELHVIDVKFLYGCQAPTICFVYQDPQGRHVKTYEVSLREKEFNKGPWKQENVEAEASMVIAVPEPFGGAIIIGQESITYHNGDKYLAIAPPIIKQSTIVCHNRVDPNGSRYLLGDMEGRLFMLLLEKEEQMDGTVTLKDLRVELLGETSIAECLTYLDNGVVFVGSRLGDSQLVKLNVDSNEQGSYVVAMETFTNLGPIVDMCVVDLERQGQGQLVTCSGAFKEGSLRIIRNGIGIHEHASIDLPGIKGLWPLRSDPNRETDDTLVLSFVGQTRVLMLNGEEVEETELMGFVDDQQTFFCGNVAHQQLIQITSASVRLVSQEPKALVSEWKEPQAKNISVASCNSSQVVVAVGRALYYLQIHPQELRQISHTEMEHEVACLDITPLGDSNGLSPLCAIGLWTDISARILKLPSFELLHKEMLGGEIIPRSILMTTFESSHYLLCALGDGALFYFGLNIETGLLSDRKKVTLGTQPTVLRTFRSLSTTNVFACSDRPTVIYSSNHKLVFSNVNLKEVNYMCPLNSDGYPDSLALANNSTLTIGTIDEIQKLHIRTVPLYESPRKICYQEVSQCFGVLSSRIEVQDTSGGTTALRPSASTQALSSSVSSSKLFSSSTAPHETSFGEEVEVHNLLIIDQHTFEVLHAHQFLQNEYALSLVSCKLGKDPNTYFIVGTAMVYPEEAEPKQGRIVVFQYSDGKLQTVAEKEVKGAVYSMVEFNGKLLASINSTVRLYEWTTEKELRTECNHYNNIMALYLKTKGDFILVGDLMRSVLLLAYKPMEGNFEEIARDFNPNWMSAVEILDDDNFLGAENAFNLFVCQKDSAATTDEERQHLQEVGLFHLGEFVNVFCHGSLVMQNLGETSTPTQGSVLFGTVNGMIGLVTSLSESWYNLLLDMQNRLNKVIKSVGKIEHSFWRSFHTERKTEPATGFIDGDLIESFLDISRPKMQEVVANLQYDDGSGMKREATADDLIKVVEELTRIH

| SMILES | DC50 [nM] | Dmax [%] |
| --- | --- | --- |
| O=C1CCC(N2Cc3c(ccc4c3OCC43CCN(Cc4ccc5cc[nH]c5n4)CC3)C2=O)C(=O)N1 (centres unmarked) [Compound A66, 3-(1′-((1H-pyrrolo[2,3-b]pyridin-6-yl)methyl)-6-oxo-6,8-dihydro-2H,7H-spiro[furo[2,3-e]isoindole-3,4′-piperidin]-7-yl)piperidine-2,6-dione] | > 500 | 40 to 60 |
| O=C1CCC(N2Cc3c(ccc4c3OCC43CCN(Cc4cc(F)cc5ccoc45)CC3)C2=O)C(=O)N1 (centres unmarked) [Compound A117, 3-(1′-((5-fluorobenzofuran-7-yl)methyl)-6-oxo-6,8-dihydro-2H,7H-spiro[furo[2,3-e]isoindole-3,4′-piperidin]-7-yl)piperidine-2,6-dione] | 200 to 500 | 40 to 60 |
| CC(c1ccccc1)N1CCC2(CC1)COc1c2ccc2c1CN(C1CCC(=O)NC1=O)C2=O (centres unmarked) [Compound A318, 3-(6-oxo-1′-(1-phenylethyl)-6,8-dihydro-2H,7H-spiro[furo [2,3-e]isoindole-3,4′-piperidin]-7-yl)piperidine-2,6-dione] | < 50 | 60 to 80 |
| O=C1CCC(N2Cc3c(ccc4c3OCC43CCN(Cc4ccc(F)c5[nH]ncc45)CC3)C2=O)C(=O)N1 (centres unmarked) [Compound A136, 3-(1′-((7-fluoro-1H-indazol-4-yl)methyl)-6-oxo-6,8-dihydro-2H,7H-spiro[furo[2,3-e]isoindole-3,4′-piperidin]-7-yl)piperidine-2,6-dione] | < 50 | 40 to 60 |
| Cn1ncc2ccc(CN3CCC4(CC3)COc3c4ccc4c3CN(C3CCC(=O)NC3=O)C4=O)cc21 (centres unmarked) [Compound A57, 3-(1′-((1-methyl-1H-indazol-6-yl)methyl)-6-oxo-6,8-dihydro-2H,7H-spiro[furo[2,3-e]isoindole-3,4′-piperidin]-7-yl)piperidine-2,6-dione] | 50 to 200 | 60 to 80 |
| O=C1CCC(N2Cc3c(ccc4c3OCC43CCN(CC4CC5CCC4C5)CC3)C2=O)C(=O)N1 (centres unmarked) [Compound A24, 3-(1′-(bicyclo[2.2.1]heptan-2-ylmethyl)-6-oxo-6,8-dihydro-2H,7H-spiro[furo[2,3-e]isoindole-3,4′-piperidin]-7-yl)piperidine-2,6-dione] | > 500 | 40 to 60 |
| N#Cc1ccc(CN2CCC3(CC2)COc2c3ccc3c2CN(C2CCC(=O)NC2=O)C3=O)cc1 (centres unmarked) [Compound A195, 4-((7-(2,6-dioxopiperidin-3-yl)-6-oxo-7,8-dihydro-2H,6H-spiro[furo[2,3-e]isoindole-3,4′-piperidin]-1′-yl)methyl)benzonitrile] | > 500 | < 40 |
| O=C1CCC(N2Cc3c(ccc4c3OCC43CCN(Cc4cnn(S(=O)(=O)c5ccc(F)cc5)c4)CC3)C2=O)C(=O)N1 [Compound A354, (S)-3-(1′-((1-((4-fluorophenyl)sulfonyl)-1H-pyrazol-4-yl)methyl)-6-oxo-6,8-dihydro-2H,7H-spiro[furo[2,3-e]isoindole-3,4′-piperidin]-7-yl)piperidine-2,6-dione] | > 500 |  |
| O=C1CCC(N2Cc3c(ccc4c3OCC43CCN(Cc4cnn(Cc5cccc(F)c5)c4)CC3)C2=O)C(=O)N1 (centres unmarked) [Compound A238, 3-(1′-((1-(3-fluorobenzyl)-1H-pyrazol-4-yl)methyl)-6-oxo-6,8-dihydro-2H,7H-spiro[furo[2,3-e]isoindole-3,4′-piperidin]-7-yl)piperidine-2,6-dione] | < 50 | 60 to 80 |
| N#Cc1ccc(-n2cc(CN3CCC4(CC3)COc3c4ccc4c3CN([C@H]3CCC(=O)NC3=O)C4=O)cn2)cc1 [Compound A359, (S)-4-(4-((7-(2,6-dioxopiperidin-3-yl)-6-oxo-7,8-dihydro-2H,6H-spiro[furo[2,3-e]isoindole-3,4′-piperidin]-1′-yl)methyl)-1H-pyrazol-1-yl)benzonitrile] | < 50 | 60 to 80 |
| Cc1ccc(C(=O)Nc2cccc(CN3CCC4(CC3)OCc3c4ccc4c3CN(C3CCC(=O)NC3=O)C4=O)c2)cc1 (centres unmarked) [Compound A263, N-(3-((7-(2,6-dioxopiperidin-3-yl)-6-oxo-1,6,7,8-tetrahydrospiro[furo[3,4-e]isoindole-3,4′-piperidin]-1′-yl)methyl)phenyl)-4-methylbenzamide] | < 50 | 60 to 80 |
| CC1(Cn2cc(CN3CCC4(CC3)COc3c4ccc4c3CN(C3CCC(=O)NC3=O)C4=O)cn2)COC1 (centres unmarked) [Compound A320, 3-(1′-((1-((3-methyloxetan-3-yl)methyl)-1H-pyrazol-4-yl)methyl)-6-oxo-6,8-dihydro-2H,7H-spiro[furo[2,3-e]isoindole-3,4′-piperidin]-7-yl)piperidine-2,6-dione] | > 500 | 40 to 60 |
| O=C1CCC(N2Cc3c(ccc4c3OCC43CCN(Cc4cnn(Cc5ccccc5F)c4)CC3)C2=O)C(=O)N1 (centres unmarked) [Compound A239, 3-(1′-((1-(2-fluorobenzyl)-1H-pyrazol-4-yl)methyl)-6-oxo-6,8-dihydro-2H,7H-spiro[furo[2,3-e]isoindole-3,4′-piperidin]-7-yl)piperidine-2,6-dione] | < 50 | 60 to 80 |
| N#Cc1ccc(CN2CCC3(CC2)COc2c3ccc3c2CN(C2CCC(=O)NC2=O)C3=O)cc1Cl (centres unmarked) [Compound A33, 2-chloro-4-((7-(2,6-dioxopiperidin-3-yl)-6-oxo-7,8-dihydro-2H,6H-spiro[furo[2,3-e]isoindole-3,4′-piperidin]-1′-yl)methyl)benzonitrile] | > 500 | 40 to 60 |
| O=C1CCC(N2Cc3c(ccc4c3OCC43CCN(Cc4nc(-c5ccccc5)cs4)CC3)C2=O)C(=O)N1 (centres unmarked) [Compound A85, 3-(6-oxo-1′-((4-phenylthiazol-2-yl)methyl)-6,8-dihydro-2H,7H-spiro[furo[2,3-e]isoindole-3,4′-piperidin]-7-yl)piperidine-2,6-dione] | > 500 | < 40 |
| O=C1CCC(N2Cc3c(ccc4c3OCC43CCN(Cc4cccc5ccnn45)CC3)C2=O)C(=O)N1 (centres unmarked) [Compound A76, 3-(6-oxo-1′-(pyrazolo[1,5-]pyridin-7-ylmethyl)-6,8-dihydro-2H,7H-spiro[furo[2,3-e]isoindole-3,4′-piperidin]-7-yl)piperidine-2,6-dione] | > 500 | < 40 |
| O=C1CCC(N2Cc3c(ccc4c3OCC43CCN(Cc4cccs4)CC3)C2=O)C(=O)N1 (centres unmarked) [Compound A182, 3-(6-oxo-1′-(thiophen-2-ylmethyl)-6,8-dihydro-2H,7H-spiro[furo[2,3-e]isoindole-3,4′-piperidin]-7-yl)piperidine-2,6-dione] | > 500 | 40 to 60 |
| O=C1CC[C@H](N2Cc3c(ccc4c3OCC43CCN(Cc4cccc(-c5cnn(C(F)F)c5)c4)CC3)C2=O)C(=O)N1 [Compound A281, (S)-3-(1′-(3-(1-(difluoromethyl)-1H-pyrazol-4-yl)benzyl)-6-oxo-6,8-dihydro-2H,7H-spiro[furo[2,3-e]isoindole-3,4′-piperidin]-7-yl)piperidine-2,6-dione] | < 50 | > 80 |
| O=C1CCC(N2Cc3c(ccc4c3OCC43CCN(Cc4cccc5cccc(F)c45)CC3)C2=O)C(=O)N1 (centres unmarked) [Compound A50, 3-(1′-((8-fluoronaphthalen-1-yl)methyl)-6-oxo-6,8-dihydro-2H,7H-spiro[furo[2,3-e]isoindole-3,4′-piperidin]-7-yl)piperidine-2,6-dione] | < 50 | 60 to 80 |
| O=C1CCC(N2Cc3c(ccc4c3OCC43CCN(Cc4cccc(N5CCCC5)c4)CC3)C2=O)C(=O)N1 (centres unmarked) [Compound A96, 3-(6-oxo-1′-(3-(pyrrolidin-1-yl)benzyl)-6,8-dihydro-2H,7H-spiro[furo[2,3-e]isoindole-3,4′-piperidin]-7-yl)piperidine-2,6-dione] | 50 to 200 | 60 to 80 |
| O=C1CCC(N2Cc3c(ccc4c3OCC43CCN(Cc4cnn(C5CCCCC5)c4)CC3)C2=O)C(=O)N1 (centres unmarked) [Compound A220, 3-(1′-((1-cyclohexyl-1H-pyrazol-4-yl)methyl)-6-oxo-6,8-dihydro-2H,7H-spiro[furo[2,3-e]isoindole-3,4′-piperidin]-7-yl)piperidine-2,6-dione] | > 500 | < 40 |
| O=C1CCC(N2Cc3c(ccc4c3OCC43CCN(Cc4cnn(CC5CCOCC5)c4)CC3)C2=O)C(=O)N1 (centres unmarked) [Compound A233, 3-(6-oxo-1′-((1-((tetrahydro-2H-pyran-4-yl)methyl)-1H-pyrazol-4-yl)methyl)-6,8-dihydro-2H,7H-spiro[furo[2,3-e]isoindole-3,4′-piperidin]-7-yl)piperidine-2,6-dione] | 200 to 500 | 60 to 80 |
| N#Cc1cccc(CN2CCC3(CC2)COc2c3ccc3c2CN(C2CCC(=O)NC2=O)C3=O)c1 (centres unmarked) [Compound A219, 3-((7-(2,6-dioxopiperidin-3-yl)-6-oxo-7,8-dihydro-2H,6H-spiro[furo[2,3-e]isoindole-3,4′-piperidin]-1′-yl)methyl)benzonitrile] | 200 to 500 | 40 to 60 |
| O=C1CCC(N2Cc3c(ccc4c3OCC43CCN(Cc4cccc5sccc45)CC3)C2=O)C(=O)N1 (centres unmarked) [Compound A186, 3-(1′-(benzo[b]thiophen-4-ylmethyl)-6-oxo-6,8-dihydro-2H,7H-spiro[furo[2,3-e]isoindole-3,4′-piperidin]-7-yl)piperidine-2,6-dione] | < 50 | > 80 |
